Laboratory results from the NIST ThermoML archive (doi:10.1016/j.fluid.2018.09.024).
± gives the expanded uncertainty stated by the source.

Assay: activity coefficient (dimensionless); of the first substance listed, at infinite dilution; xn = mol fraction of the nth substance listed
Conditions: 101.33 kPa, Liquid, Chromatography, x1 = 0

Question: For `C=COC(C)=O` [vinyl acetate] + CCCCCCCCCCCC[N+](C)(C)CCOc1ccccc1.O=S(=O)([N-]S(=O)(=O)C(F)(F)F)C(F)(F)F, which activity coefficient (318.15 K) is on record?
Answer: 0.393 ± 0.034

Question: And the activity coefficient (328.15 K)?
Answer: 0.414 ± 0.034

Question: What about the activity coefficient (338.15 K) of the same molecule?
Answer: 0.434 ± 0.035

Question: And the activity coefficient (348.15 K)?
Answer: 0.453 ± 0.036

Question: What about the activity coefficient (358.15 K) of the same molecule?
Answer: 0.473 ± 0.037

Question: And the activity coefficient (368.15 K)?
Answer: 0.493 ± 0.038

Question: For `O` [water] + CCCCCCCCCCCC[N+](C)(C)CCOc1ccccc1.N#C[N-]C#N, which activity coefficient (328.15 K) is on record?
Answer: 0.467 ± 0.036

Question: What about the activity coefficient (338.15 K) of the same molecule?
Answer: 0.479 ± 0.037

Question: And the activity coefficient (348.15 K)?
Answer: 0.489 ± 0.037

Question: What about the activity coefficient (358.15 K) of the same molecule?
Answer: 0.5 ± 0.04

Question: What about the activity coefficient (368.15 K) of the same molecule?
Answer: 0.51 ± 0.038

Question: And the activity coefficient (378.15 K)?
Answer: 0.52 ± 0.039

Question: With `O` [water] + CCCCCCCCCCCC[N+](C)(C)CCOc1ccccc1.O=S(=O)([N-]S(=O)(=O)C(F)(F)F)C(F)(F)F as the molecule, how does the activity coefficient (318.15 K) read?
Answer: 3.65 ± 0.25

Question: What about the activity coefficient (328.15 K) of the same molecule?
Answer: 3.32 ± 0.23

Question: And the activity coefficient (338.15 K)?
Answer: 3.04 ± 0.21

Question: And the activity coefficient (348.15 K)?
Answer: 2.8 ± 0.19

Question: And the activity coefficient (358.15 K)?
Answer: 2.59 ± 0.18

Question: And the activity coefficient (368.15 K)?
Answer: 2.4 ± 0.16
